Source: patent US8709379B2, “Liposomal nanoparticles and other formulations of fenretinide for use in therapy and drug delivery” (Scitech Development, LLC, priority 2006, dated 2014)
In brackets after ≈: the same amount, converted by molar mass. Several values for one entry are separate records, joined by “and”; a condition that tells them apart may be missing. Identical values can stand only once. Like-named read-outs stand apart in the source and are kept apart here. One block for each compound: values may come before it.

Tests used:
[1] = test system: EpiDerm-FT (full thickness living skin model)
Protocol: (§1) Using an analytical method measuring HPR by HPLC, and extraction procedures that yield >95% recovery of HPR from skin homogenates, EpiDerm Enhanced Barrier Function and EpiDerm Full-thickness skin specimens were removed from the Franz cells at the scheduled time, washed and halved as described below, and then homogenized and extracted in acetonitrile supplemented with 4 μg/mL BHT, 0.1% ethanol for quantitation of HPR by HPLC. Receiver medium specimens were collected and processed for HPR analysis by HPLC as described below. Injection volumes were 100 μl for extracts of skin and receiver medium and 50 μl for calibration standards. HPR quantitation was by back calculation to a standard curve constructed from clinical grade HPR received from the NCI. […] For the second permeation study of Retin-A, PD05057 and HPR formulation C5 2005 using enhanced barrier function epidermal models, ATRA in the extracts of treated skin was quantified against an ATRA standard curve and HPR against an HPR standard curve.
(§2) 18 reconstituted EpiDerm-Full Thickness specimens (EFT-306-AFAB-PRF, lot #7024-306-AFAB-PR) and 18 reconstituted EpiDerm Skin Model Enhanced Barrier Function (EPI-606-X-AFAB-PRF, lot #5093ofs) were received in good condition from Mattek Inc via overnight courier. EpiDerm-FT was maintained in culture by specialized medium changes every other day according to the manufacturer's instructions. EpiDerm-606X was stored refrigerated until use. EpiDerm-FT medium was free of phenol red, antibiotic and anti-fungal additives (EFT-300-MM-ASY-AFAB-PRF, lot #110405aab and EPI-100-X), so as to avoid creating artifactual toxicity or proinflammatory response. The particular skin specimens were all reconstituted with normal human epidermal keratinocytes and, for EpiDerm-FT, fibroblasts as well from a single donor foreskin.
(§3) Three topical products were tested in the in vitro skin model: Retin-A 0.1% (lot #5BM258, expiry 02/07), HPR in topical formulation C5 and another HPR formulation (PD05057). These drugs were tested blindly using the following codes: “A” for Retin-A, “B” for the C5 formulation of HPR, and “D” for the HPR formulation PD05057. Receiver medium was made by mixing pre-warmed, 37° C. EFT-306 medium 5:1 with human serum albumin (Sigma A6909, lot #055K8904, then lot #095K8906) to its physiological concentration of 50 mg/mL. To prevent oxidation of HPR during the collection period, BHT was added to the receiver medium to a final concentration of 10 μg/mL from a 40 mg/mL solution of BHT-NF (Spectrum Chemicals, B1196, lot #UM0659) in Ethanol USP (NDC 11098-503-05, lot #121310). Each sterile amber Franz cells was pre-warmed to 37° C. using a circulating water bath, the bottom chamber filled completely with receiver medium (˜10 ml), and then reconstituted skin specimens were removed from the cell culture wells and spread across the orifice epidermis upward, and clamped into place with a sterile top chamber. Pre-weighed aliquots of a target dose of 1.7 mg Retin-A prepared using an analytical balance were applied to the epidermal face, disbursed and messaged with the aid of the rubber tip of 1 ml BD tuberculin syringes and the start time recorded.

[2] = Delivered dose and retinoid flux, EpiDerm-FT in Franz cells; conditions: human, 1.7 mg Retin-A cream
Protocol: as §1, §2, §3

[3] = test system: EpiDerm-606X (epidermal model, enhanced barrier function); conditions: human, 0.1 %
Protocol: as §1, §2, §3

[4] = test system: EpiDerm-FT (full thickness living skin model); test: Delivered dose and retinoid flux, EpiDerm-FT in Franz cells; conditions: EpiDerm-FT, collection period up to 5 hours
Protocol: as §1, §2, §3

[5] = Maximum (saturation) solubility of HPR in physiological aqueous systems with ethanol or human plasma proteins; assay type: physicochemical
Protocol: Although the compound is readily soluble in ethanol, this solvent solubility was not maintained when an ethanol solution of HPR was mixed into aqueous buffered systems, like physiological solutions, and in fact, even when the ethanol content of an aqueous solution of HPR was as high as 20%, the HPR solubility only reached approximately 1-2 μg/ml.
Purified human proteins were obtained from Sigma Chemical Company and dissolved in receiver medium, which was the same as the specialized medium from Mattek Inc used to maintain reconstituted skin systems or assay enhanced barrier permeability function. The individual proteins were dissolved to their respective plasma concentrations: high-density lipoprotein to 0.2 mg/mL, retinol binding protein to 0.05 mg/mL, serum albumin to 50 mg/mL (A6909, lot #055K8904), and acid α1-glycoprotein to 1 mg/mL (50646, lot #448248/1). HPR dissolved to 100 mg/mL in absolute ethanol supplemented with 4 mg/mL BHT was added to each protein solution to final theoretical concentration of 50 μg/mL and mixed by vortexing, the insoluble drug removed by centrifugation (12,000×g, 5 min, 23° C.), and the supernatant analyzed by HPLC to quantify HPR concentration.
A study of the HPR solubilizing properties of physiological concentrations of four human drug-binding plasma proteins that were expected to bind HPR under physiological conditions was conducted in receiver medium: high-density lipoprotein (HDL), retinol binding protein (RBP), albumin (ALB), and acid α-1-glycoprotein (AGP). Although certainly not the highest affinity binding, ALB solubilized more HPR per mL of receiver medium than any other plasma protein tested, driven primarily by its much higher physiological concentration than the other proteins. The solubilizing capacity of ALB was 7.5 μg HPR per ml of medium, which was 5-fold higher than that of 20 vol % ethanol. Using physiological concentrations of ALB in the 10 ml receiving medium chamber created a sink condition capable of binding 75 μg of HPR. Since the test surface area of the Franz cell was 1 cm^2 and the testing was conducted over 5 hours, this receiver medium was capable of supporting an average flux rate of 15 μg/cm^2/hour. It was concluded that this receiving medium should provide true sink conditions, considering the applied test dose of API from each formulation was just 1.7 μg/cm^2.

[6] = Clinical trial and pharmacokinetic study of oral HPR (corn oil soft gel capsules) in adult solid tumor patients; assay type: in vivo, human; conditions: for Cmax: po
Protocol: In an early clinical trial and pharmacokinetic study of oral HPR (corn oil, soft gel capsules) administered qdx7 to adult solid tumor patients at Wayne State University, dose escalation proceeded to 1600 mg/m^2 TID per day for seven days (˜90 capsules/day for one week).

[7] = Bioavailability of oral HPR in corn oil versus IV F23 in Sprague-Dawley rats; assay type: in vivo; conditions: plasma, rat, 1200 mg/m^2 in corn oil by gavage vs 444 mg/m^2 IV F23, AUC0-30, read-out: bioavailability of orally dosed HPR
Protocol: The appropriate doses of injectable HPR administered IV to achieve desired blood or tissue levels can be determined by those skilled in the art, using data from related studies of oral and intravenous HPR formulations in healthy rats. For example, the present inventors administered a single, non-toxic bolus dose of 444 mg/m^2 of the F23 formulation (described herein) that was prepared at a strength of 50 mg/mL HPR, via femoral vein catheters to a group of seven dual catheterized Sprague-Dawley rats. A second group of rats received a single, non-toxic dose of 1200 mg/m^2 HPR in corn oil via oral gavage after an overnight fast which was maintained up until 2 hours after dosing. […]
Mean blood plasma concentration-time curves of measured HPR following oral and IV administration are shown in (FIG. 2). From such results, the bioavailability of the oral HPR can be calculated, as an accepted measure of the proportion of orally administered drug that entered systemic circulation. […] Bioavailability of oral HPR administered in corn oil was calculated by comparing the AUC values achieved by oral and intravenous dosing using the equation:
[formula] […] Assuming this to be similar to bioavailability of oral HPR in humans, which cannot be measured directly until human patients are actually dosed with intravenous HPR, it is possible to estimate suitable doses of HPR lipid nanoparticles for clinical use.

[8] = test system: isolated epidermis (cadaveric); test: Permeation into isolated cadaveric epidermis in Franz cells; assay type: in vitro ADME; conditions: receiver medium PBS with ethanol to 20 vol %
Protocol: Epidermal drug levels achieved by 3 hours were stable to 24 hours. The C5 formulation reached 11. μg/mg after single application. The products were tested as 0.1% strength creams. Thus, by increasing strength of the product to 0.5% and applying twice daily, it is possible to achieve target content levels in the skin. Moreover, as discussed below, the C5 formulation may be advantageous in reaching this level in epidermis alone.

[9] = cited from earlier work
[10] = rat, 24 hours after dosing; cited from earlier work
[11] = Maximum (saturation) solubility of HPR in physiological aqueous systems with ethanol or human plasma proteins; assay type: physicochemical; conditions: 23 °C, kinetic from dmso stock, PBS pH 7.4
SCLC patients = conditions: cited from earlier work
human tumor cell lines = conditions: for 72 hours in vitro; cited from earlier work
rodents = conditions: in vivo; cited from earlier work

- detection in receiver medium [1]: No ATRA was detected
- retinoid in Cells (skin specimen) ([1]; human, 0.2 h, 0.1 %): 0.031 µg
- retinoid in receiver Medium ([1]; human, 0.2 h, 0.1 %): 0 µg
- retinoid in Cells (skin specimen) ([1]; human, 2.1 h, 0.1 %): 0.042 µg
- retinoid in receiver Medium ([1]; human, 2.1 h, 0.1 %): 0 µg
- retinoid in Cells (skin specimen) ([1]; human, 3 h, 0.1 %): 0.056 µg
- retinoid in receiver Medium ([1]; human, 3 h, 0.1 %): 0 µg
- share of applied dose in skin specimen ([1]; human, 3 h, 0.1 %): 2.9%
- retinoid in Cells (skin specimen) ([1]; human, 5 h, 0.1 %): 0.035 µg
- retinoid in receiver Medium ([1]; human, 5 h, 0.1 %): 0 µg
- half-life at 0.1 % [2]: > 2 h
- retinoid in Cells (epidermis) ([3]; 1 h): 0.209 µg
- retinoid in receiver Medium ([3]; 1 h): 0 µg
- retinoid in Cells (epidermis) ([3]; 2 h): 0.106 µg
- retinoid in receiver Medium ([3]; 2 h): 0 µg
- retinoid in Cells (epidermis) ([3]; 3 h): 0.046 µg
- retinoid in receiver Medium ([3]; 3 h): 0 µg
- retinoid in Cells (epidermis) ([3]; 5 h): 0.032 µg
- retinoid in receiver Medium ([3]; 5 h): 0 µg
SMILES: CC1=C(/C=C/C(C)=C/C=C/C(C)=C/C(=O)O)C(C)(C)CCC1 [ATRA, all-trans-retinoic acid]

SMILES: CC1=C(/C=C/C(C)=C/C=C/C(C)=C\C(=O)O)C(C)(C)CCC1 [Formulation 13-cis-RA, 13-cis-retinoic acid]
- detection in receiver medium [4]: accumulated in the receiver medium

SMILES: CC1=C(/C=C/C(C)=C/C=C/C(C)=C/C(=O)Nc2ccc(O)cc2)C(C)(C)CCC1 [HPR, N-4-hydroxyphenylretinamide]
- solubility ([5]; PBS with 20% ethanol, 23 °C, pH 7.4, aqueous with cosolvent or surfactant or cyclodextrin, kinetic from dmso stock, PBS pH 7.4, ethanol to 20% of volume, read-out: Maximum HPR Solubility): 1 to 2 µg/mL (≈ 2.55 to 5.11 µM)
- increase of HPR solubility by ethanol ([5]; PBS with 20 vol % ethanol versus physiological saline): 200 fold
- solubility ([5]; phosphate-buffered saline with 20 vol % ethanol, pH 7.4, aqueous with cosolvent or surfactant or cyclodextrin, kinetic from dmso stock, phosphate-buffered saline with ethanol to 20 vol %, read-out: HPR solubility): ~1.3 µg/mL (≈ 3.32 µM)
- solubility ([5]; physiological saline / aqueous systems, saline or isotonic, physiological saline / aqueous systems, read-out: HPR solubility): ~0.005 µg/mL (≈ 0.0128 µM)
- solubilizing capacity of ALB relative to 20 vol % ethanol ([5]; receiver medium with albumin): 5 fold
- Cmax ([6]; human, plasma, after the first dose): 1000 ng/mL to 1300 ng/mL and 2.6 µM to 3.3 µM
- Cmax ([6]; human, plasma, after the last dose): 2800 ng/mL to 4600 ng/mL and 7 µM to 12 µM
- half-life ([6]; human, plasma, oral HPR, patients, read-out: terminal phase half-life): 8 to 14 h
- ceiling of plasma HPR level ([6]; oral, regardless of schedule or dose above 1200 mg/m^2 BID): ≤ 5 µg/mL
- bioavailability [7]: 8%
- HPR in receiver medium [8]: not detected
- plasma level of HPR ([9]; oral 25 mg/kg/day for 10 days, 3 hrs after last dose): 80 ng/mL
- plasma level of HPR ([9]; oral 125 mg/kg/day for 10 days, 3 hrs after last dose): 260 ng/mL
- plasma level of HPR ([9]; oral 800 mg/kg/day): 315 ng/mL
- accumulation in pancreas over plasma [10]: 15-20 fold
- solubility ([11]; human, PBS with albumin 50 g/L, pH 7.4, plasma or biological fluid, albumin 50 g/L): 7 to 8 µg/mL (≈ 17.9 to 20.4 µM)
- solubility ([11]; human, PBS with high density lipoprotein 0.2 g/L, pH 7.4, plasma or biological fluid, high density lipoprotein 0.2 g/L): 1.5 to 3 µg/mL (≈ 3.83 to 7.66 µM)
- solubility ([11]; human, PBS with retinol binding protein 0.05 g/L, pH 7.4, plasma or biological fluid, retinol binding protein 0.05 g/L): < 1 µg/mL
- solubility ([11]; human, PBS with α1-acid-glycoprotein 1 g/L, pH 7.4, plasma or biological fluid, α1-acid-glycoprotein 1 g/L): 1 to 2 µg/mL (≈ 2.55 to 5.11 µM)
- solubility ([11]; phosphate buffered saline, pH 7.4, aqueous buffer, additive none): < 1 µg/mL
- maximum concentration of HPR in blood-plasma (±SD) (SCLC patients; 14 SCLC patients, 3-4 hours after 14th oral dose (twice/day, 7 days), in µM): 7.7±4.4 04
- maximum plasma concentration (SCLC patients; SCLC patients, after final of 14 oral doses of 900 mg/m^2): approximately 7.7 μM
- stable disease, share of advanced SCLC patients (SCLC patients; oral HPR): 30%
- minimum HPR exposure level required to inhibit human tumor cell lines by at least 50-90% (human tumor cell lines): 10 µM
- maximum tolerated dose (MTD) (rodents): 651 mg/m^2
- maximum tolerated dose for parenteral HPR (rodents): ~650 mg/m^2 per day
- well tolerated daily dose (rodents): ~600 mg/m^2

SMILES: COc1ccc(NC(=O)\C=C(C)/C=C/C=C(C)\C=C\C2=C(C)CCCC2(C)C)cc1 [MPR]
- plasma level of MPR metabolite ([9]; oral HPR 125 mg/kg/day): 60 ng/mL
- plasma level of MPR metabolite ([9]; oral HPR 800 mg/kg/day): 60 ng/mL
